Measurements as given in ChEMBL document CHEMBL5331104, “Discovery of BRD4-HDAC Dual Inhibitors with Improved Fungal Selectivity and Potent Synergistic Antifungal Activity against Fluconazole-Resistant Candida albicans” (J Med Chem, 2023).
Converted amounts (≈) assume the structure as drawn. The source made the active and inactive calls. The calls are words filed in the database; no cut-off is given here.

What was measured:
[Candida] auris [1] = Synergetic antifungal activity against Candida auris 0030 assessed as microbial growth inhibition incubated for 24 hrs in the presence of fluconazole by checkerboard microdilution method; type: functional; conditions: Candidozyma auris
Candida albicans [2] = test: Downregulation of CDR2 expression in Candida albicans 0304103 at 32 ug/mL incubated for 24 hrs by RT q-PCR analysis; type: functional; conditions: dose 32.0 µg/ml
Histone deacetylase = test: Inhibition of total HDAC in human HUVEC cells using Boc-Lys(Ac)-AMC as substrate preincubated for 12 hrs followed by substrate addition measured after 6 hrs by microtiter plate reader analysis; type: cell-based
[Candida] auris [3] = Antifungal activity against Candida auris 0030 assessed as microbial growth inhibition; type: functional; conditions: Candidozyma auris
Candida albicans [4] = test: Downregulation of GCA1 expression in Candida albicans 0304103 at 32 ug/mL incubated for 24 hrs by RT q-PCR analysis; type: functional; conditions: dose 32.0 µg/ml
Candida albicans [5] = test: Downregulation of MDR1 expression in Candida albicans 0304103 at 32 ug/mL incubated for 24 hrs by RT q-PCR analysis; type: functional; conditions: dose 32.0 µg/ml
Candida albicans [6] = type: functional, 0304103; conditions: time 24 hrs
Description: Synergetic antifungal activity against Candida albicans 0304103 assessed as fractional inhibitory concentration index incubated for 24 hrs in the presence of fluconazole by checkerboard microdilution method

Candida albicans [7] = test: microbe, parasite or virus in culture; type: functional; conditions: 0304103
Description: Antifungal activity against Candida albicans 0304103 assessed as microbial growth inhibition

Nakaseomyces glabratus [8] = test: Synergetic antifungal activity against Candida glabrata 4408 assessed as fractional inhibitory concentration index incubated for 24 hrs in the presence of fluconazole by checkerboard microdilution method; type: functional
Candida albicans [9] = test: Synergetic antifungal activity against Candida albicans 9172 assessed as fractional inhibitory concentration index incubated for 24 hrs in the presence of fluconazole by checkerboard microdilution method; type: functional
Candida albicans [10] = test: Synergistic antifungal activity against Candida albicans 0304103 assessed as reduction in yeast to hypha transition at 32 ug/mL incubated for 2 hrs in the presence of fluconazole by inverse fluorescence microscopy; type: functional, organism-based; conditions: dose 32.0 µg/ml
Candida albicans [11] = test: Synergetic antifungal activity against Candida albicans 9884 assessed as microbial growth inhibition incubated for 24 hrs in the presence of fluconazole by checkerboard microdilution method; type: functional
Cryptococcus neoformans [12] = test: Synergetic antifungal activity against Cryptococcus neoformans 011405 assessed as fractional inhibitory concentration index incubated for 24 hrs in the presence of fluconazole by checkerboard microdilution method; type: functional
Candida albicans [13] = test: Downregulation of GCA1 expression in Candida albicans 0304103 at 32 ug/mL incubated for 24 hrs in the presence of fluconazole by RT q-PCR analysis; type: functional; conditions: dose 32.0 µg/ml
Candida albicans [14] = test: Downregulation of CDR1 expression in Candida albicans 0304103 at 32 ug/mL incubated for 24 hrs in the presence of fluconazole by RT q-PCR analysis; type: functional; conditions: dose 32.0 µg/ml
Candida albicans [15] = test: Antifungal activity against Candida albicans 9884 assessed as microbial growth inhibition; type: functional
Candida albicans [16] = test: Synergetic antifungal activity against Candida albicans 10061 assessed as fractional inhibitory concentration index incubated for 24 hrs in the presence of fluconazole by checkerboard microdilution method; type: functional
Nakaseomyces glabratus [17] = test: Synergetic antifungal activity against Candida glabrata 4408 assessed as microbial growth inhibition incubated for 24 hrs in the presence of fluconazole by checkerboard microdilution method; type: functional
Histone deacetylase 1 = Histone deacetylase 1 (Homo sapiens, UniProt Q13547); test: Inhibition of full-length recombinant human HDAC1 (1 to 482 residues) expressed in baculovirus infected insect cells using […] as substrate incubated for 30 mins by fluorescence based analysis; parameters: species or system Insect cell
Histone deacetylase 1, sequence (Q13547 whole entry, the tested form may be a part): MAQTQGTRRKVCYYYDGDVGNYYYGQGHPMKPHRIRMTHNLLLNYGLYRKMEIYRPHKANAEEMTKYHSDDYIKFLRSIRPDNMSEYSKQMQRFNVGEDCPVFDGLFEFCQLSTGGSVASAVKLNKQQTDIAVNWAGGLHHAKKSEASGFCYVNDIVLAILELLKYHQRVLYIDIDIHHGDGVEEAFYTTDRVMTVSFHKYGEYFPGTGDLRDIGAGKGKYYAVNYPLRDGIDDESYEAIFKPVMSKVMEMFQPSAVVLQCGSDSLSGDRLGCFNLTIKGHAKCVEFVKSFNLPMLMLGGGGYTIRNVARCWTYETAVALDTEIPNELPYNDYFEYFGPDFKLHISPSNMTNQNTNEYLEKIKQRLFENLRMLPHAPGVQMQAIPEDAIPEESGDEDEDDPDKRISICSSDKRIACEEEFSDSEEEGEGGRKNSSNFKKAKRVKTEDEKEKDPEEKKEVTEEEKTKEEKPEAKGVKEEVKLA

HL-60 = test: Antiproliferative activity against human HL-60 cells incubated for 48 hrs by CCK8 assay; type: functional, cell-based; conditions: HL-60, 48 h
Candida albicans [18] = test: Downregulation of ERG11 expression in Candida albicans 0304103 at 32 ug/mL incubated for 24 hrs by RT q-PCR analysis; type: functional; conditions: dose 32.0 µg/ml
Candida albicans [19] = test: Synergetic antifungal activity against Candida albicans 9172 assessed as microbial growth inhibition incubated for 24 hrs in the presence of fluconazole by checkerboard microdilution method; type: functional
Candida albicans [20] = test: Synergistic antibiofilm activity against FLC-resistant Candida albicans 0304103 assessed as inhibition of fungal growth at 32 ug/mL and measured for 48 hrs in the presence of fluconazole by time-growth curve assay; type: functional; parameters: scale not given: the % may be the effect or the level left; conditions: dose 32 µg/ml
[Candida] auris [21] = Synergetic antifungal activity against Candida auris 0029 assessed as microbial growth inhibition incubated for 24 hrs in the presence of fluconazole by checkerboard microdilution method; type: functional; conditions: Candidozyma auris
Candida albicans [22] = test: Synergistic antibiofilm activity against FLC-resistant Candida albicans 0304103 assessed as inhibition of biofilm formation at 64 ug/mL incubated for 24 hrs in presence of by XTT reduction assay relative to control; type: functional; parameters: scale not given: the % may be the effect or the level left; conditions: dose 64 µg/ml
Candida albicans [23] = test: Antifungal activity against Candida albicans 10061 assessed as microbial growth inhibition; type: functional
Nakaseomyces glabratus [24] = test: Antifungal activity against Candida glabrata 4408 assessed as microbial growth inhibition; type: functional
[Candida] auris [25] = Synergetic antifungal activity against Candida auris 0029 assessed as fractional inhibitory concentration index incubated for 24 hrs in the presence of fluconazole by checkerboard microdilution method; type: functional, Candidozyma auris
in vitro = conditions: human, HUVEC cells
Description: Cytotoxicity against HUVECs assessed as inhibition of cell growth incubated for 48 hrs by CCK8 assay

Candida albicans [26] = test: Antifungal activity against Candida albicans 9172 assessed as microbial growth inhibition; type: functional
Candida albicans [27] = test: Downregulation of ERG11 expression in Candida albicans 0304103 at 32 ug/mL incubated for 24 hrs in the presence of fluconazole by RT q-PCR analysis; type: functional; conditions: dose 32.0 µg/ml
Candida albicans [28] = test: Downregulation of MDR1 expression in Candida albicans 0304103 at 32 ug/mL incubated for 24 hrs in the presence of fluconazole by RT q-PCR analysis; type: functional; conditions: dose 32.0 µg/ml
Candida albicans [29] = test: Antifungal activity against Candida albicans 0304103 infected in ICR mouse assessed as decrease in kidney fungal burden at 10 mg/kg, ip administered for 5 consecutive days in the presence of fluconazole; type: functional, organism-based; conditions: time 5.0 day
Candida albicans [30] = test: Downregulation of CDR2 expression in Candida albicans 0304103 at 32 ug/mL incubated for 24 hrs in the presence of fluconazole by RT q-PCR analysis; type: functional; conditions: dose 32.0 µg/ml
Cryptococcus neoformans [31] = test: Synergetic antifungal activity against Cryptococcus neoformans 011405 assessed as microbial growth inhibition incubated for 24 hrs in the presence of fluconazole by checkerboard microdilution method; type: functional
Candida albicans [32] = test: Antibiofilm activity against FLC-resistant Candida albicans 0304103 assessed as inhibition of biofilm formation at 64 ug/mL incubated for 24 hrs by XTT reduction assay; type: functional, organism-based; conditions: dose 64.0 µg/ml
Candida albicans [33] = test: Synergetic antifungal activity against Candida albicans 10061 assessed as microbial growth inhibition incubated for 24 hrs in the presence of fluconazole by checkerboard microdilution method; type: functional
Candida albicans [34] = test: Downregulation of ADH5 expression in Candida albicans 0304103 at 32 ug/mL incubated for 24 hrs in the presence of fluconazole by RT q-PCR analysis; type: functional; conditions: dose 32.0 µg/ml
Cryptococcus neoformans [35] = test: Antifungal activity against Cryptococcus neoformans 011405 assessed as microbial growth inhibition; type: functional
Candida albicans [36] = test: Antifungal activity against Candida albicans 0304103 infected in ICR mouse assessed as reduction in kidney fungal burden at 10 mg/kg, ip administered for 5 consecutive days; type: functional, organism-based; conditions: time 5.0 day
Candida albicans [37] = test: microbe, parasite or virus in culture; type: functional; conditions: 0304103, time 24 hrs
Description: Synergetic antifungal activity against Candida albicans 0304103 assessed as microbial growth inhibition incubated for 24 hrs in the presence of fluconazole by checkerboard microdilution method

[Candida] auris [38] = Synergetic antifungal activity against Candida auris 0030 assessed as fractional inhibitory concentration index incubated for 24 hrs in the presence of fluconazole by checkerboard microdilution method; type: functional, Candidozyma auris
K562 = test: Antiproliferative activity against human K562 cells incubated for 48 hrs by CCK8 assay; type: functional, cell-based; conditions: K562, 48 h
Candida albicans [39] = test: Antibiofilm activity against FLC-resistant Candida albicans 0304103 assessed as reduction in fungal growth at 32 ug/mL and measured for 48 hrs by time-growth curve assay; type: functional, organism-based; conditions: dose 32.0 µg/ml
Candida albicans [40] = test: Synergetic antifungal activity against Candida albicans 9884 assessed as fractional inhibitory concentration index incubated for 24 hrs in the presence of fluconazole by checkerboard microdilution method; type: functional
Cryptococcus neoformans [41] = test: Antifungal activity against Cryptococcus neoformans H99 assessed as fungal growth inhibition incubated for 24 hrs by broth dilution method; type: functional
HEL = test: Antiproliferative activity against human HEL cells incubated for 48 hrs by CCK8 assay; type: functional, cell-based
Candida albicans [42] = test: Antifungal activity against Candida albicans SC5314 assessed as fungal growth inhibition incubated for 24 hrs by broth dilution method; type: functional
Candida albicans [43] = test: Downregulation of ADH5 expression in Candida albicans 0304103 at 32 ug/mL incubated for 24 hrs by RT q-PCR analysis; type: functional; conditions: dose 32.0 µg/ml
[Candida] auris [44] = Antifungal activity against Candida auris 0029 assessed as microbial growth inhibition; type: functional; conditions: Candidozyma auris
Candida albicans [45] = test: Antifungal activity against Candida albicans 0304103 assessed as reduction in yeast to hypha transition at 32 ug/mL incubated for 2 hrs by inverse fluorescence microscopy; type: functional, organism-based; conditions: dose 32.0 µg/ml
Candida albicans [46] = test: Downregulation of CDR1 expression in Candida albicans 0304103 at 32 ug/mL incubated for 24 hrs by RT q-PCR analysis; type: functional; conditions: dose 32.0 µg/ml

Cc1nnc2n1-c1sc3c(c1C(c1ccc(Cl)cc1)=N[C@H]2CC(=O)NCc1ccc(C(=O)NO)cc1)CCCC3
MIC80 ([Candida] auris [1]): 32 µg/mL | Activity (Candida albicans [2]): Active | IC50 (Histone deacetylase): 4.3 µM | MIC80 ([Candida] auris [3]): > 64 µg/mL | Activity (Candida albicans [4]): Active | Activity (Candida albicans [5]): Active | fractional inhibitory concentration index (FICI) (Candida albicans [6]): 0.063 | MIC80 (Candida albicans [7]): > 64 µg/mL | fractional inhibitory concentration index (FICI) (Nakaseomyces glabratus [8]): 0.28 | fractional inhibitory concentration index (FICI) (Candida albicans [9]): 0.07 | Activity (Candida albicans [10]): Active | MIC80 (Candida albicans [11]): 4 µg/mL | fractional inhibitory concentration index (FICI) (Cryptococcus neoformans [12]): 0.31 | Activity (Candida albicans [13]): Active | Activity (Candida albicans [14]): Active | MIC80 (Candida albicans [15]): > 64 µg/mL | fractional inhibitory concentration index (FICI) (Candida albicans [16]): 0.047 | MIC80 (Nakaseomyces glabratus [17]): 2 µg/mL | IC50 (Histone deacetylase 1): 2.4 µM | IC50 (HL-60): 3.1 µM | Activity (Candida albicans [18]): Active | MIC80 (Candida albicans [19]): 4 µg/mL | Activity (Candida albicans [20]): 100% | MIC80 ([Candida] auris [21]): 32 µg/mL | Activity (Candida albicans [22]): 80% | MIC80 (Candida albicans [23]): > 64 µg/mL | MIC80 (Nakaseomyces glabratus [24]): 8 µg/mL (≈ 13.9 µM) | fractional inhibitory concentration index (FICI) ([Candida] auris [25]): 1.5 | IC50 at 48 h (in vitro): 18 µM | MIC80 (Candida albicans [26]): > 64 µg/mL | Activity (Candida albicans [27]): Active | Activity (Candida albicans [28]): Active | Activity (Candida albicans [29]): Active | Activity (Candida albicans [30]): Active | MIC80 (Cryptococcus neoformans [31]): 2 µg/mL | Activity (Candida albicans [32]): inactive | MIC80 (Candida albicans [33]): 2 µg/mL | Activity (Candida albicans [34]): Active | MIC80 (Cryptococcus neoformans [35]): 32 µg/mL (≈ 55.6 µM) | Activity (Candida albicans [36]): inactive | MIC80 (Candida albicans [37]): 2 µg/mL (≈ 3.48 µM) | fractional inhibitory concentration index (FICI) ([Candida] auris [38]): 1.5 | IC50 (K562): > 10 µM | Activity (Candida albicans [39]): inactive | fractional inhibitory concentration index (FICI) (Candida albicans [40]): 0.19 | MIC80 (Cryptococcus neoformans [41]): 8 µg/mL (≈ 13.9 µM) | IC50 (HEL): 7.2 µM | MIC80 (Candida albicans [42]): > 64 µg/mL | Activity (Candida albicans [43]): Active | MIC80 ([Candida] auris [44]): > 64 µg/mL | Activity (Candida albicans [45]): inactive | Activity (Candida albicans [46]): Active
